Assay results taken from ChEMBL document CHEMBL1146154, “Inhibitors of Plasmepsin II-potential antimalarial agents” (Bioorg Med Chem Lett, 2006).

Experiments:
[1] = tested on: Plasmodium falciparum; experiment: Antimalarial activity against Plasmodium falciparum infected human RBC; type: functional, organism-based
[2] = target: Plasmepsin II (Plasmodium falciparum, UniProt P46925); experiment: Inhibition of PM2 by FRET assay
Plasmepsin II, sequence (P46925 whole entry): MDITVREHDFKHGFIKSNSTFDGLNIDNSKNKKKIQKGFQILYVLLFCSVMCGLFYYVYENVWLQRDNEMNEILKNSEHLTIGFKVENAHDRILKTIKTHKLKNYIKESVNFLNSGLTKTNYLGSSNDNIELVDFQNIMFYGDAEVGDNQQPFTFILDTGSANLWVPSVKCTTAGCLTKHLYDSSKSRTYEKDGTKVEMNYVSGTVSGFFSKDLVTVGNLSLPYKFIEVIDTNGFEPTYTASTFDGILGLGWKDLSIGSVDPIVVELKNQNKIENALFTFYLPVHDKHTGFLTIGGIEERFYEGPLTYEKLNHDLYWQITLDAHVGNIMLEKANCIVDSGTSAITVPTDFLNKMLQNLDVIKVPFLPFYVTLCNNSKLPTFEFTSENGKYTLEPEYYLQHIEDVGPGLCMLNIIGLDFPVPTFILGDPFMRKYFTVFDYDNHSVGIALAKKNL

Compound	IC50 [1]	IC50 [2]
CCCCCc1ccc(C(=O)N(CCN(CCCC)CCCC)Cc2ccc(NCc3ccccc3)cc2)cc1	686 nM	429 nM
CCCCCc1ccc(C(=O)N(CCN(CCCC)CCCC)Cc2ccc(N(CC)CC)cc2)cc1	550 nM	1490 nM
CCCCCc1ccc(C(=O)N(CCN(CCCC)CCCC)Cc2ccc(-c3cccnc3)cn2)cc1	465 nM	5270 nM
CCCCCc1ccc(C(=O)N(CCN(CC)CCN(CC)CC)Cc2ccc(-c3ccc4c(c3)OCO4)cc2)cc1		439 nM
CCCCCc1ccc(C(=O)N(CCN(CCCC)CCCC)Cc2ccc(-c3cccnc3)nc2)cc1	458 nM	587 nM
CCCCCc1ccc(C(=O)N(CCN(CCCC)CCCC)Cc2ccc(-c3ccc4c(c3)OCO4)nc2)cc1	677 nM	437 nM
CCCCCc1ccc(C(=O)N(CCN(CCCC)CCCC)Cc2ccc(N3CCN(C)CC3)cc2)cc1	431 nM	2550 nM
CCCCCc1ccc(C(=O)N(CCN(CCC)CCC)Cc2ccc(-c3ccc4c(c3)OCO4)cc2)cc1		531 nM
CCCCCc1ccc(C(=O)N(CCN(CCCC)CCCC)Cc2ccc(-c3cncnc3)cn2)cc1	639 nM	8530 nM
CCCCCc1ccc(C(=O)N(CCN2CCOCC2)Cc2ccc(-c3ccc4c(c3)OCO4)cc2)cc1		2900 nM
CCCCCc1ccc(C(=O)N(CCN(CCCC)CCCC)Cc2ccc(-c3ccc(CC(=O)O)cc3)cc2)cc1	7150 nM	463 nM
CCCCCc1ccc(C(=O)N(CCN(CCCC)CCCC)Cc2ccc(-c3ccc(OCCO)cc3)cc2)cc1	3660 nM	511 nM
CCCCCc1ccc(C(=O)N(CCN(CCCC)CCCC)Cc2ccc(-c3cncnc3)cc2)cc1	2230 nM	531 nM
CCCCCc1ccc(C(=O)N(CCN(CCCC)CCCC)Cc2ccc(NC(=O)C3CCNCC3)cc2)cc1	550 nM	464 nM
CCCCCc1ccc(C(=O)N(CCCc2ccccc2)C2CCN(Cc3ccccc3)CC2)cc1		1700 nM
CCCCCc1ccc(C(=O)N(CCN(CCCC)CCCC)Cc2ccc(-c3ccc4c(c3)OCO4)cn2)cc1	698 nM	1910 nM
CCCCCc1ccc(C(=O)N(CCN(CCCC)CCCC)Cc2ccc(-c3ccccn3)cc2)cc1	1730 nM	
CCCCCc1ccc(C(=O)N(CCN(C(C)C)C(C)C)Cc2ccc(-c3ccc4c(c3)OCO4)cc2)cc1		1500 nM
CCCCCc1ccc(C(=O)N(CCN(CCCC)CCCC)Cc2ccc(N3CCN(Cc4ccccc4)CC3)cc2)cc1	790 nM	646 nM
CCCCCc1ccc(C(=O)N(CCN(CCCC)CCCC)Cc2ccc(-c3ccncc3)nc2)cc1	457 nM	642 nM
CCCCCc1ccc(C(=O)N(CCN(CC)CC)Cc2ccc(-c3ccc4c(c3)OCO4)cc2)cc1		1520 nM
CCCCCc1ccc(C(=O)N(CCN(CCCC)CCCC)Cc2ccc(-c3ccccc3)nc2)cc1	609 nM	589 nM
CCCCCc1ccc(C(=O)N(CCN(CCCC)CCCC)Cc2ccc(N(C)c3ccccc3)cc2)cc1	617 nM	574 nM
CCCCCc1ccc(C(=O)N(CCN(CCCC)CCCC)Cc2ccc(Nc3ccncc3)cc2)cc1	207 nM	1820 nM
CCCCCc1ccc(C(=O)N(CCN(CCCC)CCCC)Cc2ccc(-c3ccncc3)cn2)cc1	630 nM	4550 nM
CCCCCc1ccc(C(=O)N(CCN(CCCC)CCCC)Cc2ccc(N(C)c3ccncc3)cc2)cc1	453 nM	3010 nM
CCCCCc1ccc(C(=O)N(CCN(CCCC)CCCC)Cc2ccc(-c3ccccn3)nc2)cc1	411 nM	736 nM
CCCCCc1ccc(C(=O)N(CCN(CCCC)CCCC)Cc2ccc(-c3ccccc3)cn2)cc1	693 nM	2350 nM
CCCCCc1ccc(C(=O)N(CCN(CCCC)CCCC)Cc2ccc(-c3cncnc3)nc2)cc1	560 nM	2230 nM
CCCCCc1ccc(C(=O)N(CCN(CCCC)CCCC)Cc2ccc(-n3ccc4ccccc43)cc2)cc1	739 nM	670 nM

Second part, the molecule after the results:

IC50 [1]	IC50 [2]	Compound
885 nM	74 nM	CCCCCc1ccc(C(=O)N(CCN(CCCC)CCCC)Cc2ccc(-c3ccc(CC(=O)N4CCOCC4)cc3)cc2)cc1
1760 nM	188 nM	CCCCCc1ccc(C(=O)N(CCN(CCCC)CCCC)Cc2ccc(N3CCSCC3)cc2)cc1
859 nM	77 nM	CCCCCc1ccc(C(=O)N(CCN(CCCC)CCCC)Cc2ccc(-c3ccc(C(=O)N(C)C)cc3)cc2)cc1
751 nM	56 nM	CCCCCc1ccc(C(=O)N(CCN(CCCC)CCCC)Cc2ccc(-c3ccc(C(=O)N4CCSCC4)cc3)cc2)cc1
605 nM	243 nM	CCCCCc1ccc(C(=O)N(CCN(CCCC)CCCC)Cc2ccc(NC(=O)c3cnccn3)cc2)cc1
2470 nM	183 nM	CCCCCc1ccc(C(=O)N(CCN(CCCC)CCCC)Cc2ccc(-c3ccc(CC(=O)OC)cc3)cc2)cc1
825 nM	240 nM	CCCCCc1ccc(C(=O)N(CCN(CCCC)CCCC)Cc2ccc(-n3cccc3)cc2)cc1
	334 nM	CCCCCc1ccc(C(=O)N(CCN(CCO)Cc2ccccc2)Cc2ccc(-c3ccc4c(c3)OCO4)cc2)cc1
340 nM	46 nM	CCCCCc1ccc(C(=O)N(CCN(CCCC)CCCC)Cc2ccc(-c3ccc(CC(=O)NCc4ccccc4)cc3)cc2)cc1
2440 nM	143 nM	CCCCCc1ccc(C(=O)N(CCN(CCCC)CCCC)Cc2ccc(-c3ccccc3)cc2)cc1
273 nM	374 nM	CCCCCc1ccc(C(=O)N(CCN(CCCC)CCCC)Cc2ccc(-c3cccnc3)cc2)cc1
1280 nM	200 nM	CCCCCc1ccc(C(=O)N(CCN(CCCC)CCCC)Cc2ccc(N3CCN(c4ccccc4)CC3)cc2)cc1
	334 nM	CCCCCc1ccc(C(=O)N(CCN2CCCCC2)Cc2ccc(-c3ccc4c(c3)OCO4)cc2)cc1
628 nM	369 nM	CCCCCc1ccc(C(=O)N(CCN(CCCC)CCCC)Cc2ccc(N3CCCCC3)cc2)cc1
1200 nM	101 nM	CCCCCc1ccc(C(=O)N(CCN(CCCC)CCCC)Cc2ccc(-c3ccc4c(c3)OCO4)cc2)cc1
1.8 nM	6 nM	CCCCCc1ccc(C(=O)N(Cc2ccc(-c3ccc(CC(=O)OC)cc3)cc2)C2CCN(CCC(C)C)CC2)cc1
	190 nM	CCCCCc1ccc(C(=O)N(CCN2CCC(Cc3ccccc3)CC2)Cc2ccc(-c3ccc4c(c3)OCO4)cc2)cc1
539 nM	224 nM	CCCCCc1ccc(C(=O)N(CCN(CCCC)CCCC)Cc2ccc(Nc3ccccc3)cc2)cc1
609 nM	289 nM	CCCCCc1ccc(C(=O)N(CCN(CCCC)CCCC)Cc2ccc(N(C)Cc3ccccc3)cc2)cc1
	165 nM	CCCCCc1ccc(C(=O)N(CCN2CCC(CCCc3ccccc3)CC2)Cc2ccc(-c3ccc4c(c3)OCO4)cc2)cc1
583 nM	212 nM	CCCCCc1ccc(C(=O)N(CCN(CCCC)CCCC)Cc2ccc(-c3ccncc3)cc2)cc1
376 nM	202 nM	CCCCCc1ccc(C(=O)N(CCN(CCCC)CCCC)Cc2ccc(NC(=O)C3CCCNC3)cc2)cc1 (centres undefined)
566 nM	72 nM	CCCCCc1ccc(C(=O)N(CCN(CCCC)CCCC)Cc2ccc(-c3ccc(C(=O)NCc4ccccc4)cc3)cc2)cc1
725 nM	91 nM	CCCCCc1ccc(C(=O)N(CCN(CCCC)CCCC)Cc2ccc(-c3ccc(CC(=O)N(C)Cc4ccccc4)cc3)cc2)cc1
623 nM	154 nM	CCCCCc1ccc(C(=O)N(CCN(CCCC)CCCC)Cc2ccc(NC(=O)c3ccnc(OC)c3)cc2)cc1
